Reference: patent US10227345B2, “Compounds and methods for inhibiting fascin” (Cornell University, priority 2014, dated 2019)

Target: T1, human fascin 1 (Homo sapiens, UniProt Q16658)
T1 construct: GST (N, cleaved yes); made in house; host or cells: Escherichia coli BL21/DE3 (pGEX4T-fascin 1 plasmid)
Test: Fascin inhibition (actin bundling) assay, image-based
Format: biochemical
Conditions: in the presence of 50 μm of the compound relative to bundle activity when the compound was not present; read-out: Inhibition (percentage reduction of bundle activity)
Protocol: Recombinant human fascin 1 was expressed as a GST fusion protein in BL21 Escherichia coli. One liter of 2YT medium with ampicillin was inoculated overnight with 3 mL of BL21/DE3 culture transformed with pGEX4T-fascin 1 plasmid and grown at 37° C. until attenuance at 600 nm (D600) reached about 0.8. The culture was then transferred to 18° C. and induced by the addition of 0.1 mM isopropyl β-d-thiogalactoside (IPTG) for 12 h. Bacteria were harvested by centrifugation at 5,000 r.p.m. for 10 min. The pellets were suspended in 30 mL of PBS supplemented with 0.2 mM PMSF, 1 mM DTT, 1% (v/v) Triton X-100 and 1 mM EDTA. After sonication, the suspension was centrifuged at 15,000 r.p.m. for 30 min to remove the cell debris. The supernatant was then incubated for 2 h with 4 mL of glutathione beads (Sigma) at 4° C. After extensive washing with PBS, the beads were resuspended in 10 mL of thrombin cleavage buffer (20 mM Tris-HCl pH 8.0, 150 mM NaCl, 2 mM CaCl2, 1 mM DTT). Fascin was released from the beads by incubation overnight with 40-100 U of thrombin at 4° C. After centrifugation, 0.2 mM PMSF was added to the supernatant to inactivate the remnant thrombin activity. The fascin protein was further concentrated with a Centricon® (Boca Raton, Fla.) filter to about 50 mg/mL.
Representative compounds described herein were tested for fascin inhibition activity. Purified fascin protein (15 μL of 0.5 μM) in buffer (100 mM KCl, 20 mM Tris/HCl, pH 7.5, 2 mM MgCl2) was added into each well of a clear 384-well flat-bottom plate (Corning) using Thermo Multidrop Combi (Fisher). Compound solutions (5 mM stock, 180 nL) were pin transferred from stock 384-well plates into the 384-well assay plates and incubated for 30 min. Then 15 μL of 0.5 μM polymerized actin (in 100 mM KCl, 20 mM Tris/HCl, pH 7.5, 2 mM MgCl2, 1 mM DTT, 1 mM ATP) (Cytoskeleton Inc.) was added, resulting in 30 μM final concentration for chemical compounds. […] Mixed solution (25 μL) was then transferred to one well in a black 384-well plate coated with poly-D-lysine, and stained actin bundles or F-actin would stick onto the poly-D-lysine plates. After the plates were thoroughly washed with 1×PBS for 3 times, the plate was imaged using an ImageXpress Micro High Content Screening System (Molecular devices). The images were processed and analyzed using MetaMorph software. The raw image data for each well was background-corrected by subtraction of the median intensities across all wells on the plate. The background-corrected data was used to compute the bundle length for each well. The negative control wells were employed for quality control: multiple DMSO-only control wells (16 wells/plate) were present on each assay plate.

Row | SMILES | inhibition at 50 µM [%]
1 | Cc1nocc1C(=O)Nc1nn(Cc2ccc(C(F)(F)F)nc2)c2ccccc12 [Compound 93, 3-methyl-N-(1-((6-(trifluoromethyl)pyridin-3-yl)methyl)-1H-indazol-3-yl)isoxazole-4-carboxamide] | < 10
2 | Cc1ccc(Cn2nc(N)c3ccccc32)cc1 [Compound 77, 1-(4-methylbenzyl)-1H-indazol-3-amine] | < 10
3 | CC(=O)Nc1nn(Cc2ccc(C(F)(F)F)cc2)c2cncc(Cl)c12 [Compound 150, N-(1-(4-(trifluoromethyl)benzyl)-4-chloro-1H-pyrazolo(3,4-c)pyridyl)-3-acetamide] | 10
4 | Cc1nocc1C(=O)Nc1nn(Cc2ccc(C#N)cc2)c2ccccc12 [Compound 86, N-(1-(4-cyanobenzyl)-1H-indazol-3-yl)-3-methylisoxazole-4-carboxamide] | < 10
5 | Cc1occc1C(=O)Nc1nn(Cc2ccc(C(F)(F)F)cc2)c2cncc(Cl)c12 [Compound 141, N-(4-chloro-1-(4-(trifluoromethyl)benzyl)-1H-pyrazolo[3,4-c]pyridin-3-yl)-2-methylfuran-3-carboxamide] | 10
6 | Cc1occc1C(=O)Nc1nn(Cc2ccc(C(F)(F)F)nc2)c2ccc(C#N)cc12 [Compound 100, N-(5-cyano-1-((6-(trifluoromethyl)pyridin-3 - yl)methyl)-1H-indazol-3-yl)-2-methylfuran-3-carboxamide] | < 10
7 | O=C(Nc1nn(Cc2ccc(C(F)(F)F)cc2)c2ccccc12)c1ccsc1Cl [Compound 38, 2-chloro-N-(1-(4-(trifluoromethyl)benzyl)-1H-indazol-3-yl)thiophene-3-carboxamide] | < 10
8 | Cc1ncsc1C(=O)Nc1nn(Cc2ccc(C(F)(F)F)nc2)c2ccccc12 [Compound 95, 4-methyl-N-(1-((6-(trifluoromethyl)pyridin-3-yl)methyl)-1H-indazol-3-yl)thiazole-5-carboxamide] | < 10
9 | N#Cc1ccc(Cn2nc(N)c3ccccc32)cc1 [Compound 84, 4-((3-amino-1H-indazol-1-yl)methyl)benzonitrile] | < 10
10 | Cc1nocc1C(=O)Nc1nn(Cc2ccc(C(F)(F)F)cc2)c2cccc(Cl)c12 [Compound 118, N-(4-chloro-1-(4-(trifluoromethyl)benzyl)-1H-indazol-3-yl)-3-methylisoxazole-4-carboxamide] | < 10
11 | Cc1ncsc1C(=O)Nc1nn(Cc2ccc(C(F)(F)F)cc2)c2c(C(F)(F)F)cccc12 [Compound 115, 4-methyl-N-(7-(trifluoromethyl)-1-(4-(trifluoromethyl)benzyl)-1H-indazol-3-yl)thiazole-5-carboxamide] | < 10
12 | Cc1ccc(Cn2nc(NC(=O)c3ccno3)c3ccccc32)cc1 [Compound 80, N-(1-(4-methylbenzyl)-1H-indazol-3-yl)isoxazole-5-carboxamide] | 50
13 | COc1cscc1C(=O)Nc1nn(Cc2ccc(C(F)(F)F)cc2)c2ccccc12 [Compound 51, 4-methoxy-N-(1-(4-(trifluoromethyl)benzyl)-1H-indazol-3-yl)thiophene-3-carboxamide] | < 10
14 | Cc1cccc(C(=O)Nc2nn(Cc3ccc(C(F)(F)F)cc3)c3ccccc23)c1 [Compound 17, 3-methyl-N-(1-(4-(trifluoromethyl)benzyl)-1H-indazol-3-yl)benzamide] | < 10
15 | O=C(Nc1nn(Cc2ccc(Cl)cc2)c2ccccc12)c1cccnn1 [Compound 69, N-(1-(4-chlorobenzyl)-1H-indazol-3-yl)pyridazine-3-carboxamide] | 50
16 | Nc1nn(Cc2ccc(C(F)(F)F)cc2)c2cncc(Cl)c12 [Compound 137, 4-chloro-1-(4-(trifluoromethyl)benzyl)-1H-pyrazolo[3,4-c]pyridin-3-amine] | 100
17 | O=C(Nc1nn(Cc2ccc(C(F)(F)F)cc2)c2c(C(F)(F)F)cccc12)c1ccoc1 [Compound 112, N-(7-(trifluoromethyl)-1-(4-(trifluoromethyl)benzyl)-1H-indazol-3-yl)furan-3-carboxamide] | < 10

Row | SMILES | inhibition at 50 µM [%]
18 | O=C(Nc1nn(Cc2ccc(C(F)(F)F)cc2)c2ccccc12)c1cnc[nH]1 [Compound 26, N-(1-(4-(trifluoromethyl)benzyl)-1H-indazol-3-yl)-1H-imidazole-5-carboxamide] | < 10
19 | O=C(Nc1nn(Cc2ccc(C(F)(F)F)cc2)c2cc(C(F)(F)F)ccc12)c1ccoc1 [Compound 107, N-(6-(trifluoromethyl)-1-(4-(trifluoromethyl)benzyl)-1H-indazol-3-yl)furan-3-carboxamide] | < 10
20 | CC(C)C(=O)Nc1nn(Cc2ccc(C(F)(F)F)cc2)c2cncc(Cl)c12 [Compound 152, N-(4-chloro-1-(4-(trifluoromethyl)benzyl)-1H-pyrazolo[3,4-c]pyridin-3-yl)isobutyramide] | 100
21 | O=C(Nc1nn(Cc2ccc(C(F)(F)F)cc2)c2ccccc12)c1ccc(F)c(F)c1 [Compound 19, 3,4-difluoro-N-(1-(4-(trifluoromethyl)benzyl)-1H-indazol-3-yl)benzamide] | < 10
22 | O=C(Nc1nn(Cc2ccc(C(F)(F)F)cc2)c2ccccc12)c1ccc(F)cc1 [Compound 13] | < 10
23 | Nc1nn(Cc2ccc(C(F)(F)F)cc2)c2cccc(Cl)c12 [Compound 116, 4-chloro-1-(4-(trifluoromethyl)benzyl)-1H-indazol-3-amine] | < 10
24 | N#Cc1ccc2c(c1)c(N)nn2Cc1ccc(C(F)(F)F)nc1 [Compound 97, 3-amino-1-((6-(trifluoromethyl)pyridin-3-yl)methyl)-1H-indazole-5-carbonitrile] | < 10
25 | Cc1occc1C(=O)Nc1nn(Cc2ccc(C(F)(F)F)cc2)c2c(C(F)(F)F)cccc12 [Compound 114, 2-methyl-N-(7-(trifluoromethyl)-1-(4-(trifluoromethyl)benzyl)-1H-indazol-3-yl)furan-3-carboxamide] | < 10
26 | O=C(Nc1nn(Cc2ccc(C(F)(F)F)cc2)c2ccccc12)c1cccc(Cl)c1 [Compound 7, 3-chloro-N-(1-(4-(trifluoromethyl)benzyl)-1H-indazol-3-yl)benzamide] | 10
27 | Cc1occc1C(=O)Nc1nn(Cc2ccc(C(F)(F)F)nc2)c2ccccc12 [Compound 94, 2-methyl-N-(1-((6-(trifluoromethyl)pyridin-3-yl)methyl)-1H-indazol-3-yl)furan-3-carboxamide] | < 10
28 | Cc1ccc(-c2ccc(C(=O)Nc3nn(Cc4ccc(C(F)(F)F)cc4)c4ccccc34)o2)cc1 [Compound 3, 5-(p-tolyl)-N-(1-(4-(trifluoromethyl)benzyl)-1H-indazol-3-yl)furan-2-carboxamide] | 10
29 | O=C(Nc1nn(Cc2ccc(C(F)(F)F)nc2)c2cccc(Cl)c12)c1cccnn1 [Compound 121, N-(4-chloro-1-((6-(trifluoromethyl)pyridin-3-yl)methyl)-1H-indazol-3-yl)pyridazine-3-carboxamide] | < 10
30 | O=C(Nc1nn(Cc2ccccc2C(F)(F)F)c2ccccc12)c1ccoc1 [Compound 57, N-(1-(2-(trifluoromethyl)benzyl)-1H-indazol-3-yl)furan-3-carboxamide] | < 10
31 | Cc1ncsc1C(=O)Nc1nn(Cc2ccc(C(F)(F)F)cc2)c2cccc(Cl)c12 [Compound 120, N-(4-chloro-1-(4-(trifluoromethyl)benzyl)-1H-indazol-3-yl)-4-methylthiazole-5-carboxamide] | < 10
32 | O=C(Nc1nn(Cc2ccc(C(F)(F)F)nc2)c2ccc(C(F)(F)F)cc12)c1cccnn1 [Compound 127, N-(5-(trifluoromethyl)-1((6-(trifluoromethyl)pyridin-3-yl)methyl)-1H-indazol-3-yl)pyridazine-3-carboxamide] | < 10
33 | O=C(Nc1nn(Cc2ccc(C(F)(F)F)cc2)c2ccccc12)c1cncnc1 [Compound 56, N-(1-(4-(trifluoromethyl)benzyl)-1H-indazol-3-yl)pyrimidine-5-carboxamide] | 90
